Results as given in US20240024301A1, “METHODS OF TREATING HEAD AND NECK SQUAMOUS CELL CARCINOMA” (Kura Oncology, Inc., priority 2022, published 2024).

Experiments:
CAL33 xenograft tumors = test: Immunohistochemistry of CAL33 CDX tumor samples; type: in vivo, mice; settings: alpelisib 40 mg/kg QD, tipifarnib 60 mg/kg BID, or the combination, 10 days
Protocol: CAL33 xenograft tumors treated with alpelisib (40 mg/kg QD), tipifarnib (60 mg/kg BID), or the combination, for 10 days were subjected to immunohistochemistry analysis to assess levels of cell proliferation and apoptosis.
Fixation of tumor samples was performed by zinc formalin (Z-Fix, Anatech) and tissues were paraffin-embedded; samples were sectioned into 5 μm sections. Samples were deparaffinized, hydrated with graded ethanols, and the endogenous peroxidase was blocked with 3% H2O2 in 70% ethanol. After washing with distilled water, antigen retrieval was performed with IHC antigen retrieval solution (ThermoFisher Scientific, #00-4955-58) in a microwave at the high setting. Slides were then washed with water and PBS, and incubated with the primary and secondary antibodies, and developed with the ABC reagent (Vector Laboratories, #PK-6100) and the DAB substrate kit (Vector Laboratories, #SK-4105). The following antibodies were used: Cleaved PARP (Cell Signaling Technology #9661, 1:400 dilution) and Ki67 (DACO #M7240, 1:50). Percent positive cells in three fields per slide were counted using a microscope.

[1] = tested on: cell lines harboring PIK3CA mutation or amplification; test: Growth of PIK3CA-altered HNSCC cell lines, monolayer and spheroid cultures; type: cell-based
Protocol: (§1) Because a farnesyltransferase inhibitor may block hyperactivated growth factor signaling at multiple nodes, including HRas protein and Rheb protein, the impact of tipifarnib on the growth of PIK3CA-altered HNSCC models and HRAS-mutant HNSCC models in vitro and in vivo was examined. For tumor spheroid growth assays, cells were resuspended in 4% Matrigel and seeded in 96-well ultralow attachment plates at a density of 1-1.5K cells/well. The following day, spheroids were treated with alpelisib and/or tipifarnib and baseline growth measured using 3D Cell Titer Glo reagent (Promega). Spheroids were incubated with drug for 7 days and a final CTG reading taken. Percentage growth was calculated by[(Ti−Tz)/(C−Tz)]×100 for concentrations for which Ti>/=Tz and [(Ti−Tz)/Tz]×100 for concentrations for which Ti<Tz, where Tz=time zero, C=control growth, and Ti=test growth at each drug concentration. […] Consistently, in PIK3CA mutant/amplified PDX models, the tipifarnib-alpelisib doublet led to deeper antitumor responses compared to alpelisib monotherapy.

Rheb protein = test: Lysosome extraction by density gradient ultracentrifugation and immunoblot; type: cell-based; settings: CAL33 cells, versus DMSO
From the text: Active Rheb protein is thought to localize to lysosomes to regulate mTOR activity. Density gradient ultracentrifugation was utilized to extract lysosomes from CAL33 cells treated with DMSO or tipifarnib. Lysosomes were lysed and subjected to immunoblot analysis alongside whole-cell lysate (WCL), FIG. 4. LAMP1 is a lysosome-specific marker and is used in this assay.

[2] = tested on: PIK3CA-mutant CAL33 tumors; test: Immunoblot and immunohistochemistry of treated CAL33 xenograft tumors; type: in vivo, athymic mice; settings: tipifarnib 60 mg/kg BID, 10 days
Protocol: To assess the underlying mechanism of tumor regression, the PIK3CA-mutant CAL33 tumors were treated with tipifarnib (60 mg/kg BID), alpelisib (40 mg/kg QD), or the combination for 10 days. On day 10, tumors were collected from all cohorts at 2 and 24 hours after the final dose of alpelisib for immunohistochemistry and immunoblot analysis. […] Addition of tipifarnib blocked this rebound and promoted cell cycle arrest as indicated by decreased Rb phosphorylation.

HRAS and RHEB = test: Subcellular fractionation and immunoblot of cytosol and membrane fractions; type: cell-based; settings: CAL33, BICR22, and SCC9 cells; 1 μM tipifarnib (48 hr)
Protocol: (§2) Immunoblots of MAPK/PI3K pathway components and apoptotic markers in PIK3CA-mutant CAL33 cells treated with alpelisib (BYL-719) for 0, 1, 2, 6, and 24 hours in the absence or presence of tipifarnib (48-hour treatment) are shown in FIG. 2A. A shift in Rheb and HRas protein mobility is indicative of defarnesylation. Generally, immunoblotting was performed as follows: Cell lysates were prepared on ice by washing cells once with PBS, resuspending in 1× cell lysis buffer (Cell Signaling Technology #9803) or RIPA buffer supplemented with Halt protease inhibitor cocktail (Thermo Scientific #78430) and briefly sonicated or vortexed. Lysates were cleared by centrifugation (maximum speed, 10 min) and protein concentration was determined by BCA assay (Pierce). Lysate (20-60 μg) was loaded onto 4-12% Bis-Tris gels (NuPAGE, Invitrogen) for electrophoresis and immunoblotting. When RAS was evaluated, active RAS was detected using Thermo Scientific kit #16117. Membrane and cytosolic fractions were isolated using the Mem-PER Plus Membrane Protein Extraction Kit (Thermo Scientific kit #89842).
CAL33, BICR22, and SCC9 cells were treated with DMSO, 250 nM alpelisib (24 hr), 1 μM tipifarnib (48 hr), or the combination.

UM-SCC-17B (Q61L) = test: HRAS-mutant cell line spheroid growth, checkerboard, 7 days; type: cell-based
Protocol: as §1
Inhibition of HRAS-mutant cell line spheroid growth by tipifarnib and/or alpelisib. The HRAS-mutant HNSCC cell line UM-SCC-17B (Q61L) was cultured as 3D tumor spheroids and treated with tipifarnib and/or alpelisib in a checkerboard dose-response fashion for 7 days.

[3] = biological target: geranylgeranyltransferase type 1 (Homo sapiens, UniProt P53609); settings: cited from earlier work
[4] = tested on: PIK3CA-mutant CAL33 cells; test: Immunoblots of MAPK/PI3K pathway components and apoptotic markers; type: cell-based; settings: alpelisib 0, 1, 2, 6, 24 hours, absence or presence of tipifarnib (48-hour treatment)
Protocol: as §2
However, by 24 hours, phosphorylation of these proteins partially or completely rebounded. […]

BICR22 cells = test: as above; type: cell-based; settings: BICR22 (PIK3CA copy gain); alpelisib 0, 1, 24 hours, absence or presence of tipifarnib (48-hour treatment)
Protocol: as §2
(§3) Immunoblots of MAPK/PI3K pathway components and apoptotic markers in high HRas protein (i.e., overexpression of wild-type HRas protein) HNSCC cell line SCC9 cells and in PIK3CA copy gain (amplified) BICR22 cells are shown in FIG. 2B and FIG. 2D, respectively. […]

SCC9 cells = test: as above; type: cell-based; settings: SCC9 (HRas high); alpelisib 0, 1, 24 hours, absence or presence of tipifarnib (48-hour treatment)
Protocol: as §2, §3

HSC2 (H1047R) = test: PI3K-mTOR signaling by immunoblot; type: cell-based; settings: 1 h and 24 h
Protocol: PI3K-mTOR Signaling in PIK3CA-mutant HSC2 Cell Line. The PIK3CA-mutant HNSCC cell line HSC2 (H1047R) was treated with the tipifarnib-alpelisib combination and mTOR activity was assessed by immunoblot.

| SMILES | Cleaved PARP (% positive cells) (CAL33 xenograft tumors) | Ki67 (% positive cells) (CAL33 xenograft tumors) | Proliferation / cytotoxicity [1] | Lysosomal localization of Rheb protein (Rheb protein) | Farnesylation of HRAS and RHEB (immunoblot) [2] | Membrane localization of HRAS and RHEB (HRAS and RHEB) | Cytotoxicity in 3D tumor spheroids (UM-SCC-17B (Q61L)) | Inhibition of geranylgeranyltransferase type 1 [3] | Pathway activity, cell cycle and apoptotic markers (immunoblot) [4] | Pathway activity, cell cycle and apoptotic markers (immunoblot) (BICR22 cells) | Pathway activity, cell cycle and apoptotic markers (immunoblot) (SCC9 cells) | mTOR activity (4EBP1, S6 phosphorylation) ([2]; alpelisib 40 mg/kg QD, tumors collected 2 and 24 hours after final alpelisib dose) | mTOR activity (phospho-S6K and S6) and PARP cleavage (HSC2 (H1047R)) |
| --- | --- | --- | --- | --- | --- | --- | --- | --- | --- | --- | --- | --- | --- |
| Cn1cncc1[C@@](N)(c1ccc(Cl)cc1)c1ccc2c(c1)c(-c1cccc(Cl)c1)cc(=O)n2C [Tipifarnib, (R)-6-[amino(4-chlorophenyl)(1-methyl-1H-imidazol-5-yl)methyl]-4-(3-chlorophenyl)-1-methyl-2(1H)-quinolinone] | 4.9 ± 2.1 | 35.1 ± 8.1 | reduced proliferation of both monolayer and spheroid cultures | markedly diminished the lysosomal localization of Rheb protein | resulted in defarnesylation of HRAS and RHEB | resulted in the membrane delocalization of the majority of HRAS and RHEB in all three cell types | induced cytotoxicity | not an inhibitor of geranylgeranyltransferase type 1 |  |  |  |  |  |
| Cc1nc(NC(=O)N2CCC[C@H]2C(N)=O)sc1-c1ccnc(C(C)(C)C(F)(F)F)c1 [Alpelisib, (2S)—N^1-[4-Methyl-5-[2-(2,2,2-trifluoro-1,1-dimethylethyl)-4-pyridinyl]-2-thiazolyl]-1,2-pyrrolidinedicarboxamide] | 5.1 ± 0.4 | 53.7 ± 9.8 |  |  |  |  |  |  | rapidly inhibited the activity of AKT, mTOR, and ERK | transiently reduced | transiently reduced | transiently inhibited mTOR activity | transiently inhibited |
